What was measured:
[1] = system: Ah receptor; assay: Receptor capture assay employing ARNT-GST fusion protein, anti-GST plate, PCR and gel densitometry; assay type: biochemical, murine; conditions: B-naphthoflavone 10 μM; duplicate samples; 30 cycles PCR; DMSO control 363
Description: The receptor was activated in the presence of ARNT/GST binding partner and test sample. Sufficient ARNT/GST was added to displace the endogenous ARNT present in the Ah receptor preparation. In a tube, 98 μl Hepa1c1c7 (0.8 mg) extract was incubated with 1 μl GST-ARNT (50 ng) and 1 μl sample (e.g. BNF or vehicle alone) at 30° C. for 1 hour. Non-specific binding of the nucleic acid-tracer was reduced by preincubating the reaction mix with NaCl to 60 mM and 2 μg salmon sperm DNA for 15 min. at room temperature. Nucleic acid-tracer was added to 50 fmol and the reaction was incubated 20 min at room temperature. The complex was captured on a commercially available 96-well anti-GST plate (Perkin Elmer Life Sciences, Boston, Mass.). The anti-GST coated microtiter plate was washed once with Wallac Wash Buffer prior to addition of 50 μl receptor-DNA reaction. […]
Samples were analyzed by agarose gel electrophoresis with visualization of ethidium-bromide stained DNA bands under UV radiation Typically, 20 μl of each sample was analyzed in the 4% gels, yielding bright fluorescent bands from the positive controls. […] Negatives were scanned using an HPscanjet 2200c and DNA bands were quantified using ScionImage (Scion Corporation) software.
Duplicate samples were analyzed with the protocol described above with B-naphthoflavone (10 μM) or vehicle (DMSO) following 30 cycles PCR. […]

[2] = target: T1, AhR (Rattus norvegicus, UniProt P41738); assay: Receptor capture assay, real-time PCR, AhR derived from rat; assay type: biochemical
T1 construct: The cytosol containing AhR heteromers was stored at; from tissue; host or cells: liver cytosol of Long-Evans rats
Description: A set of calibrators consisting of 5000, 2500, 1250, 626, 313, 156, and 78 parts per trillion (ppt or pg/ml) 2,3,7,8-tetrachlorodibenzo-p-dioxin (TCDD) was prepared in methanol. In addition to TCDD a set of calibrators for AhR agonist, beta-naphthoflavone (BNF) was prepared and analyzed in the assay. Separately, 25 ul of 1:50,000 dilution of 10 uM stock nucleic acid-tracer was added per 1 ml of rodent cytosol, which was the source of AhR, and was aliquoted into glass tubes. The standards were diluted 1:20 into 50-100 ul of rodent cytosol, and incubated for 1-2 hr at room temperature to 37° C. Following incubation, 40 to 100 ul of the reaction was transferred to each well of the antibody-coated Capture Strip and incubated on a shaking platform for 30 min to 1 hr at room temperature. The Capture Strips were washed 5 times with Wash Buffer B, and aspirated; optionally soaking wells for 30 sec-5 min with wash buffer during each cycle. Taqman® Universal PCR Master Mix, primers, and Taqman® probe (Applied Biosystems, Calif.) were added, and adhesive cover applied. PCR was performed and analyzed using an ABI PRISM® 7700, using default settings: 50° C., 2 min, 95° C. […] A threshold cycle (Ct) was determined for each reaction The Ct represents the PCR cycle at which an increase in reporter fluorescence above baseline signal can first be detected.

T1 sequence (P41738 10-853): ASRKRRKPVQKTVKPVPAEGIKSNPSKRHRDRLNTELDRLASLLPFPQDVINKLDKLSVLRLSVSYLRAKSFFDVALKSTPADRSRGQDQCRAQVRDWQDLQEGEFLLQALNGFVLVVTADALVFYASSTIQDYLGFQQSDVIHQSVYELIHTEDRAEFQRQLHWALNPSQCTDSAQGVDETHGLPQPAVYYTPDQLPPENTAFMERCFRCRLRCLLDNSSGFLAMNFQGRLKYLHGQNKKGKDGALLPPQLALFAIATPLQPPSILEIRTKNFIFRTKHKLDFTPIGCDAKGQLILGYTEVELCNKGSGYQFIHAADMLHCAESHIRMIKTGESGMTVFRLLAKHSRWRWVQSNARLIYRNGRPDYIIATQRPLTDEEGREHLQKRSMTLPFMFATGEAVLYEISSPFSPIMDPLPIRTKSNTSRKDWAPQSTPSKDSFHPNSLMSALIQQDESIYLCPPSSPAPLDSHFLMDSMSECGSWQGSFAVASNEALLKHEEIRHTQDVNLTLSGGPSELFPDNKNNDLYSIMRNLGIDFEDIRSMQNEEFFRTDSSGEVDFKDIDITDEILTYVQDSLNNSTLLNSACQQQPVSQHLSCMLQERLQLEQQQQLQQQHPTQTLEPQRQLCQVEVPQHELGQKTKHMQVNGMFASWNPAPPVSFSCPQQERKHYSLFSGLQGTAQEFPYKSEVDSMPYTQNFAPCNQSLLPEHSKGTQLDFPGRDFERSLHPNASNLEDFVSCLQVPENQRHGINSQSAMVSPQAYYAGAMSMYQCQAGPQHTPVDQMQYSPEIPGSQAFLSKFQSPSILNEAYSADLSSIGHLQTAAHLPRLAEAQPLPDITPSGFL
T1 sequence (P41739 whole entry partner): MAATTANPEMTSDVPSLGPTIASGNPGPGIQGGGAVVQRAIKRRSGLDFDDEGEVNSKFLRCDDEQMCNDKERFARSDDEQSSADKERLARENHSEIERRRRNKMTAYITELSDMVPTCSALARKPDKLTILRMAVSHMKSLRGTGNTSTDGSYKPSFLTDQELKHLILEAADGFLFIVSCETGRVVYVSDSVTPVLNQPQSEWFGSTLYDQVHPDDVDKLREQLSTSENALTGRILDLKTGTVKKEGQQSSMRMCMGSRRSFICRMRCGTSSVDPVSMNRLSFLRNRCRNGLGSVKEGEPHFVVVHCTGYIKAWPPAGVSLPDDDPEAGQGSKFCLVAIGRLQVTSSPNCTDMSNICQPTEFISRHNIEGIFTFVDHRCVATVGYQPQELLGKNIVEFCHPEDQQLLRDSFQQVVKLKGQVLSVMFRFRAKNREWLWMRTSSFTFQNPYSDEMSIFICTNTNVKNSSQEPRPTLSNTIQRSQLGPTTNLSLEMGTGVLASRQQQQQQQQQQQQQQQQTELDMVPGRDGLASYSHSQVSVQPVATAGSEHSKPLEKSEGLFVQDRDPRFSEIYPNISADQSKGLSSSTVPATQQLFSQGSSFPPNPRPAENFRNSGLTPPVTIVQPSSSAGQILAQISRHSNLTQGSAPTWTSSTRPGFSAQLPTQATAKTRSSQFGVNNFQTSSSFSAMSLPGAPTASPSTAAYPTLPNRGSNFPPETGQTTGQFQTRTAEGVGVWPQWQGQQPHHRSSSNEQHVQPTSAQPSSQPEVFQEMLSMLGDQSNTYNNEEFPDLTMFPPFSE

SMILES | average value of quantified DNA bands [1] | slope of dose-response curve [2] | EC50 of dose-response curve ([2]; pg of TCDD in the assay)
O=c1cc(-c2ccccc2)oc2ccc3ccccc3c12 [BNF, beta-naphthoflavone] | 3013 | – | –
Clc1cc2c(cc1Cl)Oc1cc(Cl)c(Cl)cc1O2 [TCDD, 2,3,7,8-tetrachlorodibenzo-p-dioxin] | – | −1.208 | 2.8 pg

Reference: patent US20040259096A1, “Receptor capture assay” (priority 2001, published 2004)
